From paper PMC7850479, “A drug repurposing screen identifies hepatitis C antivirals as inhibitors of the SARS-CoV2 main protease” (PLoS ONE, 2021)
Where two headings read alike, the source gives them in different places. Residues, ends and D or L forms follow the SMILES beside them.

What was measured:
[1] = molecular target: T1, SARS-CoV-2 Mpro (Severe acute respiratory syndrome coronavirus 2, UniProt P0DTD1); test: Dose validation assay (10-point dose-response), fluorescent Mpro protease assay with Ac-Abu-Tle-Leu-Gln-AFC; assay type: biochemical; conditions: for IC50 / Hill Slope: 80nM Mpro, 32μM Ac-Abu-Tle-Leu-Gln-AFC, n = 3, 4-parameter nonlinear regression; for IC50: 10 concentrations 150 μM to 7.6 nM
[2] = molecular target: T1, SARS-CoV-2 Mpro; assay type: biochemical
[3] = tested on: SARS-CoV-2; conditions: cellular model of viral replication; read-out: EC50, SARS-CoV-2 antiviral activity; cited from earlier work
[4] = tested on: HCV protease; conditions: cited from earlier work
[5] = tested on: NS3 protease variants; conditions: HCV NS3 single amino acid mutations; cited from earlier work
[6] = tested on: Covid-19 patients; parameters: method as in PMID 32445440; conditions: cohort of 1062 patients, placebo control 15 days; cited from earlier work
[7] = Z-score in the protease inhibition assay, ΔRFU at 10 minutes, 50 μM compound, substrate not stated

With `O=c1c2ccccc2[se]n1-c1ccccc1` [Ebselen] the “dose response against Mpro cleavage of substrate Ac-Abu-Tle-Leu-Gln-AFC” value ([1]; result in words, S1 Fig) was “failed to show a significant dose response”.

For `CCOC(=O)c1ccc(N2NC(=O)/C(=C/c3ccc([N+](=O)[O-])o3)C2=O)cc1` [PYR-41], the IC50 [1] was 17.4 µM and the “Hill Slope” value [1] was 0.9933.

Work on `C[C@H](NC(=O)[C@@H](Cc1c[nH]c2ccccc12)NC(=O)[C@@H](N)Cc1cnc[nH]1)C(=O)N[C@@H](Cc1c[nH]c2ccccc12)C(=O)N[C@H](Cc1ccccc1)C(=O)N[C@@H](CCCCN)C(N)=O` [U-75799E] (HELM PEPTIDE1{H.[dW].A.W.[dF].K.[am]}$$$$V2.0) yielded a Z10 [2] of 1.044.

For `OC[C@H]1O[C@H]([S-])[C@H](O)[C@@H](O)[C@@H]1O.[Au+]` [aurothioglucose], the IC50 [1] was 13.3 µM and the “Hill Slope” value [1] was 1.496.

In the case of `CC(C)(C)NC(=O)N[C@H](C(=O)N1C[C@H]2[C@@H]([C@H]1C(=O)NC(CC1CCC1)C(=O)C(N)=O)C2(C)C)C(C)(C)C` (stereo partly shown) [boceprevir], the “Hill Slope” value [1] is listed as 0.4123, the “reduction in potency against enzymatic activity, SARS-CoV-2 Mpro compared to HCV protease” value ([1]; ~1 μM for Mpro versus below 90 nM for HCV protease) is listed as 10 fold and the EC50 [3] is listed as 1.95 ± 1.62 µM. For the same compound, the IC50 [4] was less than 0.09 µM and the “reduction in activity caused by single amino acid mutations” value [5] was “up to 120 fold”.

In the case of `CCCC[C@@H](C=O)NC(=O)[C@H](CC(C)C)NC(=O)OCc1ccccc1` [calpeptin], the “Hill Slope” value [1] is reported as 1.009.

In the case of `COc1ccc2c(O[C@@H]3C[C@H]4C(=O)N[C@]5(C(=O)O)C[C@H]5/C=C\CCCCC[C@H](NC(=O)OC5CCCC5)C(=O)N4C3)cc(-c3csc(NC(C)C)n3)nc2c1` [ciluprevir], the IC50 [1] is reported as 20.8 µM and the “Hill Slope” value [1] is reported as 1.133.

Work on `CC(=O)N(CC(O)CN(C(C)=O)c1c(I)c(C(=O)NCC(O)CO)c(I)c(C(=O)NCC(O)CO)c1I)c1c(I)c(C(=O)NCC(O)CO)c(I)c(C(=O)NCC(O)CO)c1I` (stereo not shown) [iodixanol] yielded a Z10 [2, 7] of -0.9551.

For `CCCC[C@H](NC(=O)[C@@H]1[C@@H]2[C@H](CN1C(=O)[C@@H](NC(=O)NC1(CS(=O)(=O)C(C)(C)C)CCCCC1)C(C)(C)C)C2(C)C)C(=O)C(=O)NC1CC1` [narlaprevir], the “Hill Slope” value [1] was 0.9106.

In the case of `CCC(CC)COC(=O)[C@H](C)N[P@](=O)(OC[C@H]1O[C@@](C#N)(c2ccc3c(N)ncnn23)[C@H](O)[C@@H]1O)Oc1ccccc1` [remdesivir], the period of recovery [6] is listed as 10 days.

With `CCC[C@H](NC(=O)[C@@H]1[C@H]2CCC[C@H]2CN1C(=O)[C@@H](NC(=O)[C@@H](NC(=O)c1cnccn1)C1CCCCC1)C(C)(C)C)C(=O)C(=O)NC1CC1` [telaprevir] the “Hill Slope” value [1] was 1.062.

Compound dalargin has a Z10 [2, 7] of -1.032.

Work on desmopressin-acetate yielded a Z10 [2, 7] of -0.4942.

With hemin the IC50 [1] was 9.68 µM and the “Hill Slope” value [1] was 1.354.
